According to PubChem BioAssay AID1963843 (Molecular Pharmacology Branch, DTP, NCI, 2024):

System: 616215-338-R-J1-PDC complex spheroid viability
Assay: Anticancer human tumor 616215-338-R-J1-PDC patient-derived colon adenocarcinoma cell line growth inhibition [POLQ]
Settings: for IC50: curve of first compound; for viability, T/C: stronger effect = lower value
Outline: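 Growth inhibition in 3D: complex spheroids (tumor PDC, HUVEC, MSC) treated with POLQ inhibitor combinations; where Cmax unknown, highest tested concentration 10 microM, except SN-38 at 1 microM.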

[1] = second compound 0.0316 µM, first compound 0.0316 µM
[2] = second compound 0.0316 µM, first compound 0.1 µM
[3] = second compound 0.0316 µM, first compound 0.316 µM
[4] = second compound 0.0316 µM, first compound 1 µM
[5] = second compound 0.0316 µM, first compound 3.16 µM
[6] = second compound 0.0316 µM, first compound 10 µM
[7] = second compound 0.1 µM, first compound 0.0316 µM
[8] = second compound 0.1 µM, first compound 0.1 µM
[9] = second compound 0.1 µM, first compound 0.316 µM
[10] = second compound 0.1 µM, first compound 1 µM
[11] = second compound 0.1 µM, first compound 3.16 µM
[12] = second compound 0.1 µM, first compound 10 µM
[13] = second compound 0.316 µM, first compound 0.0316 µM
[14] = second compound 0.316 µM, first compound 0.1 µM
[15] = second compound 0.316 µM, first compound 0.316 µM
[16] = second compound 0.316 µM, first compound 1 µM
[17] = second compound 0.316 µM, first compound 3.16 µM
[18] = second compound 0.316 µM, first compound 10 µM
[19] = second compound 1 µM, first compound 0.0316 µM
[20] = second compound 1 µM, first compound 0.1 µM
[21] = second compound 1 µM, first compound 0.316 µM
[22] = second compound 1 µM, first compound 1 µM
[23] = second compound 1 µM, first compound 3.16 µM
[24] = second compound 1 µM, first compound 10 µM
[25] = second compound 3.16 µM, first compound 0.0316 µM
[26] = second compound 3.16 µM, first compound 0.1 µM
[27] = second compound 3.16 µM, first compound 0.316 µM
[28] = second compound 3.16 µM, first compound 1 µM
[29] = second compound 3.16 µM, first compound 3.16 µM
[30] = second compound 3.16 µM, first compound 10 µM
[31] = second compound 10 µM, first compound 0.0316 µM
[32] = second compound 10 µM, first compound 0.1 µM
[33] = second compound 10 µM, first compound 0.316 µM
[34] = second compound 10 µM, first compound 1 µM
[35] = second compound 10 µM, first compound 3.16 µM
[36] = second compound 10 µM, first compound 10 µM
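Note: spheroids exposed to compounds for one week before readout.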
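Throughout, for viability, T/C: percent viability relative to DMSO vehicle wells taken as 100%.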

O=c1[nH]cc(F)c(=O)[nH]1 + COC1C(OC(N)=O)C(O)C(Oc2ccc3c(O)c(NC(=O)c4ccc(O)c(CC=C(C)C)c4)c(=O)oc3c2C)OC1(C)C showed an IC50 (second compound 0.0316 µM) greater than 10 µM, an IC50 (second compound 0.1 µM) greater than 10 µM and an IC50 (second compound 0.316 µM) greater than 10 µM. For the same compound, the IC50 (second compound 1 µM) was greater than 10 µM, the IC50 (second compound 3.16 µM) was greater than 10 µM and the IC50 (second compound 10 µM) was greater than 10 µM. It also gave a viability, T/C [1] of 101%, a viability, T/C [2] of 94.6% and a viability, T/C [3] of 73.4%. The viability, T/C [4] was 61.1%, the viability, T/C [5] was 60.7% and the viability, T/C [6] was 68.7%. It also gave a viability, T/C [7] of 99.4%, a viability, T/C [8] of 96.3% and a viability, T/C [9] of 75.3%. It also gave a viability, T/C [10] of 64.2%, a viability, T/C [11] of 61% and a viability, T/C [12] of 61.9%. For the same compound, the viability, T/C [13] was 100%, the viability, T/C [14] was 97.2% and the viability, T/C [15] was 67.3%. It also gave a viability, T/C [16] of 59.3%, a viability, T/C [17] of 60% and a viability, T/C [18] of 63%. For the same compound, the viability, T/C [19] was 95.8%, the viability, T/C [20] was 94.1% and the viability, T/C [21] was 75.2%. For the same compound, the viability, T/C [22] was 58.1%, the viability, T/C [23] was 52.1% and the viability, T/C [24] was 59%. It also gave a viability, T/C [25] of 99.2%, a viability, T/C [26] of 107% and a viability, T/C [27] of 75.7%. For the same compound, the viability, T/C [28] was 69.8%, the viability, T/C [29] was 65.4% and the viability, T/C [30] was 65.8%. For the same compound, the viability, T/C [31] was 111%, the viability, T/C [32] was 99.2% and the viability, T/C [33] was 68.5%. The viability, T/C [34] was 57.9%, the viability, T/C [35] was 54.2% and the viability, T/C [36] was 61.2%.
In the case of CCCS(=O)(=O)Nc1ccc(F)c(C(=O)c2c[nH]c3ncc(-c4ccc(Cl)cc4)cc23)c1F + COC1C(OC(N)=O)C(O)C(Oc2ccc3c(O)c(NC(=O)c4ccc(O)c(CC=C(C)C)c4)c(=O)oc3c2C)OC1(C)C, the IC50 (second compound 0.0316 µM) is reported as 6.22 µM, the IC50 (second compound 0.1 µM) is reported as 5.9 µM and the IC50 (second compound 0.316 µM) is reported as 5.7 µM. For the same compound, the IC50 (second compound 1 µM) was 5.66 µM, the IC50 (second compound 3.16 µM) was 6.01 µM and the IC50 (second compound 10 µM) was 5.82 µM. It also gave a viability, T/C [1] of 99.9%, a viability, T/C [2] of 99.7% and a viability, T/C [3] of 100%. The viability, T/C [4] was 108%, the viability, T/C [5] was 97.1% and the viability, T/C [6] was 16.8%. The viability, T/C [7] was 98.2%, the viability, T/C [8] was 116% and the viability, T/C [9] was 102%. The viability, T/C [10] was 107%, the viability, T/C [11] was 91.1% and the viability, T/C [12] was 15.2%. The viability, T/C [13] was 109%, the viability, T/C [14] was 113% and the viability, T/C [15] was 95.8%. It also gave a viability, T/C [16] of 99.7%, a viability, T/C [17] of 83.8% and a viability, T/C [18] of 18.9%. It also gave a viability, T/C [19] of 113%, a viability, T/C [20] of 103% and a viability, T/C [21] of 96.7%. For the same compound, the viability, T/C [22] was 105%, the viability, T/C [23] was 86.4% and the viability, T/C [24] was 14.1%. It also gave a viability, T/C [25] of 96.6%, a viability, T/C [26] of 99.7% and a viability, T/C [27] of 98.1%. For the same compound, the viability, T/C [28] was 107%, the viability, T/C [29] was 91.3% and the viability, T/C [30] was 16.9%. The viability, T/C [31] was 106%, the viability, T/C [32] was 97.8% and the viability, T/C [33] was 104%. The viability, T/C [34] was 93%, the viability, T/C [35] was 89.9% and the viability, T/C [36] was 15.8%.
C=CCn1c(=O)c2cnc(Nc3ccc(N4CCN(C)CC4)cc3)nc2n1-c1cccc(C(C)(C)O)n1 + COC1C(OC(N)=O)C(O)C(Oc2ccc3c(O)c(NC(=O)c4ccc(O)c(CC=C(C)C)c4)c(=O)oc3c2C)OC1(C)C gave an IC50 (second compound 0.0316 µM) greater than 1 µM, an IC50 (second compound 0.1 µM) greater than 1 µM and an IC50 (second compound 0.316 µM) greater than 1 µM. For the same compound, the IC50 (second compound 1 µM) was greater than 1 µM, the IC50 (second compound 3.16 µM) was greater than 1 µM and the IC50 (second compound 10 µM) was greater than 1 µM. The viability, T/C (second compound 0.0316 µM, first compound 0.00316 µM) was 102%, the viability, T/C (second compound 0.0316 µM, first compound 0.01 µM) was 97.8% and the viability, T/C [1] was 97.2%. For the same compound, the viability, T/C [2] was 113%, the viability, T/C [3] was 97.8% and the viability, T/C [4] was 91.8%. For the same compound, the viability, T/C (second compound 0.1 µM, first compound 0.00316 µM) was 105%, the viability, T/C (second compound 0.1 µM, first compound 0.01 µM) was 101% and the viability, T/C [7] was 89.2%. For the same compound, the viability, T/C [8] was 103%, the viability, T/C [9] was 95.3% and the viability, T/C [10] was 55.8%. The viability, T/C (second compound 0.316 µM, first compound 0.00316 µM) was 94.3%, the viability, T/C (second compound 0.316 µM, first compound 0.01 µM) was 106% and the viability, T/C [13] was 101%. For the same compound, the viability, T/C [14] was 97.8%, the viability, T/C [15] was 95.2% and the viability, T/C [16] was 59.4%. It also gave a viability, T/C (second compound 1 µM, first compound 0.00316 µM) of 105%, a viability, T/C (second compound 1 µM, first compound 0.01 µM) of 94.5% and a viability, T/C [19] of 101%. It also gave a viability, T/C [20] of 103%, a viability, T/C [21] of 90.7% and a viability, T/C [22] of 61.5%. It also gave a viability, T/C (second compound 3.16 µM, first compound 0.00316 µM) of 93.8%, a viability, T/C (second compound 3.16 µM, first compound 0.01 µM) of 104% and a viability, T/C [25] of 100%. For the same compound, the viability, T/C [26] was 98.2%, the viability, T/C [27] was 93.9% and the viability, T/C [28] was 61.4%. For the same compound, the viability, T/C (second compound 10 µM, first compound 0.00316 µM) was 105%, the viability, T/C (second compound 10 µM, first compound 0.01 µM) was 100% and the viability, T/C [31] was 98.3%. The viability, T/C [32] was 103%, the viability, T/C [33] was 87.7% and the viability, T/C [34] was 67.3%.
